According to US10759740B2, “Antibacterial agents” (Rutgers, The State University of New Jersey, priority 2016, dated 2020):
Converted amounts (≈) assume the structure as drawn.

Columns and labels:
[1] = tested on: Salmonella enterica serovar typhimurium; assay: Broth microdilution assay (MIC); format: cell-based; details: BHI broth, 37° C., 24 h, no visible growth
Protocol: (§1) From the frozen stock (−80° C.), bacteria were inoculated into brain-hear infusion (BHI) agar (Becton Dickinson, Franklin Lakes, N.J.) and propagated under aerobic conditions at 37° C. for 24 h. After the incubation, one colony of each bacterial strain was transferred to BHI broth (Becton Dickinson, Franklin Lakes, N.J.) and sub-cultured at least twice into BHI before being used in experiments.
(§2) The minimal inhibitory concentration (MIC) of CAms were identified using a broth microdilution assay modified from previous studies. Briefly, the stock solutions of CAMs were first prepared by dissolving in double-distilled water (ddH2O) and then diluted in BHI broth at pre-determined concentrations. Further serial 2-fold dilutions were performed in a 96-well microplate (Becton Dickinson, Franklin Lakes, N.J.) with BHI broth. The inoculum concentration was adjusted to 5×10^6 CFU/mL with ultraviolet-visible (UV-vis) spectroscopy at 600 nm. An equal volume (100 μL) of bacterial suspension was added to each microplate well with a final volume of 200 μL. Plates were incubated at 37° C. for 24 h under aerobic conditions. The lowest CAm concentration that yielded no visible growth was recorded as the MIC. Cetyltrimethylammonium bromide (CTAB), a cationic amphiphile, served as a positive control that could mimic the proposed bactericidal mechanism of the newly synthesized tartaric acid-based compounds.
(§3) CAms were evaluated against five selected pathogenic microorganisms, including Gram-positive bacteria (i.e., S. aureus and L. monocytogenes) and Gram-negative bacteria (i.e., E. coli, S. typhimurium, and P. aeruginosa), using a turbidity-based microdilution method. MICs were taken as the lowest concentrations that inhibited the visible bacterial growth.

[2] = tested on: Gram-positive and Gram-negative bacteria; assay: Broth microdilution assay, whole panel; format: cell-based; details: 250 μg/mL
Protocol: as §1
as §2, with “Plates were incubated at 37° C. for 24 h under aerobic conditions.” left out, “Cetyltrimethylammonium bromide (CTAB), a cationic amphiphile, served as a positive control that could mimic the proposed bactericidal mechanism of the newly synthesized tartaric acid-based compounds.” left out
CAms were evaluated against five selected pathogenic microorganisms, including Gram-positive bacteria (i.e., S. aureus and L. monocytogenes) and Gram-negative bacteria (i.e., E. coli, S. typhimurium, and P. aeruginosa), using a turbidity-based microdilution method. […]

[3] = tested on: Staphylococcus aureus ATCC 13565; assay: Broth microdilution assay (MIC); format: cell-based; details: BHI broth, 37° C., 24 h, no visible growth
Protocol: as §1, §2
as §3, with “growth. […] The higher MIC values for the Gram-negative bacteria could be attributed to the presence of an additional lipopolysaccharide layer, which forms a hydrophilic barrier that could prevent penetration of the highly hydrophobic CAms.” for “growth.”

Escherichia coli O157:H7 = assay: Broth microdilution assay (MIC); format: cell-based; details: BHI broth, 37° C., 24 h, no visible growth
Protocol: as §1, §2
as §3, with “growth. […] The higher MIC values for the Gram-negative bacteria could be attributed to the presence of an additional lipopolysaccharide layer, which forms a hydrophilic barrier that could prevent penetration of the highly hydrophobic CAms.” for “growth.”

[4] = tested on: Listeria monocytogenes Scott A; assay: Broth microdilution assay (MIC); format: cell-based; details: BHI broth, 37° C., 24 h, no visible growth
Protocol: as §1, §2
as §3, with “growth. […] The higher MIC values for the Gram-negative bacteria could be attributed to the presence of an additional lipopolysaccharide layer, which forms a hydrophilic barrier that could prevent penetration of the highly hydrophobic CAms.” for “growth.”

[5] = tested on: Pseudomonas aeruginosa ATCC 15442; assay: Broth microdilution assay (MIC); format: cell-based; details: BHI broth, 37° C., 24 h, no visible growth
Protocol: as §1, §2
as §3, with “growth. […] The higher MIC values for the Gram-negative bacteria could be attributed to the presence of an additional lipopolysaccharide layer, which forms a hydrophilic barrier that could prevent penetration of the highly hydrophobic CAms.” for “growth.”

[6] = tested on: G. vaginalis pre-formed biofilms; assay: MBC-B against pre-formed biofilms (Example 2); format: cell-based; details: ≥3 log reduction in viable cells
Protocol: The minimum biofilm bactericidal concentrations (MBC-Bs) of the cationic amphiphiles against pre-formed biofilms of L. monocytogenes and G. vaginalis were identified. The biofilms of the two targeted microorganisms were grown in 96-well plates according to established methodology for Gram-positive and Gram-variable bacteria (Tabak et al., FEMS microbiology letters. 2009; 301(1):69-76). To identify the reduction in the number of biofilm-associated viable cells treated with different concentrations of cationic amphiphiles, the spot plate method was used (Turovskiy et al., Infectious diseases in obstetrics and gynecology. 2012; 2012:284762, 9 pages). In brief, biofilms were washed, disrupted, diluted 10^1-10^8 times with fresh medium and the samples plated on suitable solid medium.

vaginal lactobacilli = assay: MIC against vaginal lactobacilli; format: cell-based, Lactobacillus species
Protocol: According to Clinical and Laboratory Standards Institute (CLSI 2010), the MIC is defined as the lowest concentration of antimicrobial compound producing no visible growth or complete inhibition of bacterial growth during 24 h. To determine MIC values, the broth microdilution assay was performed according to Algburi et al. (Algburi et al., 2015. Path Dis 73(5)) with minor modifications. Briefly, the overnight-grown cells were diluted with their suitable culture medium to approach ˜10^6 CFU/ml. The number of bacterial cells was identified using spot plate method (Turovskiy et al., 2012. Infect Dis Obstet Gynecol 2012:284762). The CAms were serially diluted twofold with sBHI into a non-tissue culture 96-well microplate plate (Falcon, Corning Incorporated, Corning, N.Y., USA) resulting in a final volume of 100 μl for each well. Aliquots of 100 μl of the diluted cell suspension (˜10^6 CFU/ml) were added to each well of a microplate that was treated with different concentrations of CAms. To avoid culture medium evaporation, 75 μl of mineral oil (Sigma-Aldrich, St. Louis, Mo.) was added to each treated well. The microplate was then transferred to the plate reader (Model 550, Bio-Rad Laboratories, Hercules, Calif., USA) and incubated at 37° C. for 24-36 h. The kinetic reading was statistically analyzed, and the MIC and sub-MIC of each CAm compound were determined.

[7] = tested on: planktonic cells of G. vaginalis; assay: Checkerboard assay, planktonic cells; format: cell-based, Gardnerella vaginalis
Protocol: To evaluate the potential effectiveness of the antimicrobial combinations on planktonic and biofilm cells, a checkerboard assay was performed following Algburi et al. (Algburi et al., 2015. Path Dis 73(5)) with minor modifications. For planktonic cells, the overnight grown G. vaginalis was diluted to approximately 10^6 CFU/ml. Each antimicrobial agent was diluted twofold with sBHI broth into two separate 96-well non-tissue culture microplates. From each dilution of antimicrobial B, 50 μl was added horizontally over 50 μl of antimicrobial A. Then, 100 μl of bacterial suspension (10^6 CFU/ml) was separately added to the predetermined concentration of antimicrobial combinations. The MIC of each combination was determined after 24 h of incubation.
(§4) Isobolograms were used to compare the MIC and MBC-B values of each antimicrobial alone with its MIC and MBC-B values in combination with other antimicrobials. The point on the axis (X) refers to MIC or MBC-B values of the first antimicrobial with the coordinates (0, x), and the point on the axis (Y) represents the MIC or MBC-B values of the second antimicrobial with the coordinates (y, 0) when they used alone. The two MIC or MBCs-B values are connected by a dashed line (Turovskiy Y, Chikindas M L. 2011 Probiotics Antimicrob Proteins 3:144-149). The MICs or MBCs-B of each antimicrobial combination are plotted as dots on the graph. Results are expressed according to the locations of these dots from the line that connects MICs or MBCs-B of the first and second antimicrobials. When MICs or MBCs-B values are located under the line, the two combining antimicrobials are synergized, but antagonized against the tested microorganism when these dots of interaction are above. An additive effect is observed when these dots are located on the line.

biofilms of G. vaginalis = assay: Checkerboard assay, biofilm cells; format: cell-based, Gardnerella vaginalis
Protocol: For biofilm formation, the overnight culture of G. vaginalis was diluted to approximately 10^7 CFU/ml and 200 μl was transferred into a 96-well tissue culture microplate and incubated anaerobically at 37° C. for 24-36 h. Following biofilm formation and removal of non-adherent cells by washing the biofilm twice with BHIG, each antimicrobial was diluted twofold separately with BHIG broth into two 96-white deep-well microplates. From each dilution of antimicrobial B, 125 μL was added horizontally over 125 μL of antimicrobial A (see FIG. 1 of Algburi et al., 2015. Path Dis 73(5)). From each combination, 200 μL samples were added to the biofilm in sequence, and the microplate was incubated for 24 h at 37° C. under anaerobic conditions. The spot plate method was utilized for counting the number of CFU/ml and evaluating the bactericidal activity (MBC-B) of each antimicrobial combination against biofilm-associated G. vaginalis. Isobolograms were used to analyze the nature of antimicrobial interaction, which is classified as synergistic, antagonistic or additive activity against the planktonic and biofilm cells.
as §4

| Structure (SMILES) | MIC S. typhimurium (G−) [1] [µg/mL] | antimicrobial activity at the highest concentration tested [2] | MIC S. aureus (G+) [3] [µg/mL] | MIC E. coli (G−) (Escherichia coli O157:H7) [µg/mL] | MIC L. monocytogenes (G+) [4] [µg/mL] | MIC P. aeruginosa (G−) [5] [µg/mL] | MBC ([6]; Gardnerella vaginalis, pre-formed biofilm) [µg/mL] | MBC-B, biofilm-associated G. vaginalis [6] [µg/mL] | concentration that inhibited the growth of vaginal lactobacilli (vaginal lactobacilli) [µM] | metronidazole's MIC in combination with the tested CAms [7] [µM] | MIC ([7]; Gardnerella vaginalis, read-out: MIC when used alone) [µM] | metronidazole's MIC against biofilms in combination with the tested CAms (biofilms of G. vaginalis) [µM] | metronidazole's MIC against biofilms, metronidazole alone (biofilms of G. vaginalis) [µM] |
| --- | --- | --- | --- | --- | --- | --- | --- | --- | --- | --- | --- | --- | --- |
| CCCCCCCCCCCCOC(C(=O)NCCN)C(OCCCCCCCCCCCC)C(=O)NCCN.Cl.Cl (stereo not shown) [5c] | >250 | didn't show appreciable antimicrobial activity | 3.9 | >250 | 125 | >250 | – | – | – | – | – | – | – |
| CCCCCCCCCCCC(=O)OC(C(=O)NCCN)C(OC(=O)CCCCCCCCCCC)C(=O)NCCN.Cl.Cl (stereo not shown) [8c] | >250 | didn't show appreciable antimicrobial activity | 15.6 | >250 | >250 | >250 | – | – | – | – | – | – | – |
| CCC[C@@H]1C[C@@H](C(=O)N[C@@H]([C@H]2O[C@H](SC)[C@H](O)[C@@H](O)[C@H]2O)[C@H](C)Cl)N(C)C1 [clindamycin, reference compound] | – | – | – | – | – | – | 20000 (≈ 47.1 mM) | – | – | – | – | – | – |
| Cc1ncc([N+](=O)[O-])n1CCO [metronidazole, reference compound] | – | – | – | – | – | – | – | 500 (≈ 2.92 mM) | > 1168.5 | 4.7 | 37.4 | 11.1 | 40.4 |
